# From patent publication US7998952B2, “Thiolactams and uses thereof” (Millennium Pharmaceuticals, Inc., priority 2008, dated 2011)
# Target: T1, recombinant human PLK1[2-369]T210D (Homo sapiens, UniProt P53350, T210D)
# T1 construct: recombinant human PLK1[2-369]T210D; Smt (SUMO) fusion partner (N, cleaved yes); host or cells: E. coli
# Test: PLK1 DELFIA Kinase Assay
# Type: biochemical
# Details: 50 μM ATP, 2 μM peptide substrate, 0.3 nM enzyme, 90 minutes at room temperature
# Method in brief: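 E. coli-expressed human PLK1, cleaved from an Smt fusion after Ni2+ purification, is reacted with or without inhibitor for 90 minutes at room temperature and stopped with EDTA. Product is captured on Neutravidin plates and quantified by europium DELFIA time-resolved fluorescence.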
# T1 sequence (P53350 2-369 T210D): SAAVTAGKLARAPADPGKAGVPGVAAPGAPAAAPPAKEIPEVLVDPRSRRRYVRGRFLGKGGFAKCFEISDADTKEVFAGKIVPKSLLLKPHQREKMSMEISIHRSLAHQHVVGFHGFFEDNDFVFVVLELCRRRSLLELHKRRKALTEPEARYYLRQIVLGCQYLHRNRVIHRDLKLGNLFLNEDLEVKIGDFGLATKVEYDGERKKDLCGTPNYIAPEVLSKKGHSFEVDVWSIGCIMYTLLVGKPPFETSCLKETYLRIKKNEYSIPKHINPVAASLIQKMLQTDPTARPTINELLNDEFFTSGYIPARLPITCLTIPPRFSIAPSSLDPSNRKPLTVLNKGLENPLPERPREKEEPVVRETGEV
row,SMILES,IC50
1,"Cc1ccnc(C)c1Nc1ncc2c(n1)-c1ccc(C(F)(F)F)cc1NC(=S)C2 [Compound I-98, 2-[(2,4-dimethylpyridin-3-yl)amino]-9-(trifluoromethyl)-5,7-dihydro-6H-pyrimido[5,4-d][1]benzazepine-6-thione]",> 25 nM
2,"Cc1ncc(CCN(C)C)cc1Nc1ncc2c(n1)-c1ccc(Cl)cc1NC(=S)C2 [Compound I-99, 9-chloro-2-({5-[2-(dimethylamino)-ethyl]-2-methylpyridin-3-yl}amino)-5,7-dihydro-6H-pyrimido[5,4-d][1]benzazepine-6-thione]",< 5 nM
3,"Cc1nc(N2CCOCC2)ccc1Nc1ncc2c(n1)-c1ccc(C(F)(F)F)cc1NC(=S)C2 [Compound I-100, 2-[(2-methyl-6-morpholin-4-ylpyridin-3-yl)amino]-9-(trifluoromethyl)-5,7-dihydro-6H-pyrimido[5,4-d][1]benzazepine-6-thione]",< 5 nM
4,"Cc1nc(CCCN(C)C)ccc1Nc1ncc2c(n1)-c1ccc(C(F)(F)F)cc1NC(=S)C2 [Compound I-101, 2-({6-[3-(dimethylamino)propyl]-2-methylpyridin-3-yl}amino)-9-(trifluoromethyl)-5,7-dihydro-6H-pyrimido[5,4-d][1]benzazepine-6-thione]",5 to 25 nM
5,"CC(C)(C)C(=O)Nc1ccc(Nc2ncc3c(n2)-c2ccc(Cl)cc2NC(=S)C3)cn1 [Compound I-102, N-{5-[(9-chloro-6-thioxo-6,7-dihydro-5H-pyrimido[5,4-d][1]benzazepin-2-yl)amino]pyridin-2-yl}-2,2-dimethylpropanamide]",5 to 25 nM
6,"Cc1ncc(N2CCN(C)CC2)cc1Nc1ncc2c(n1)-c1ccc(Cl)cc1NC(=S)C2 [Compound I-103, 9-chloro-2-{[2-methyl-5-(4-methylpiperazin-1-yl)pyridin-3-yl]amino}-5,7-dihydro-6H-pyrimido[5,4-d][1]benzazepine-6-thione]",< 5 nM
7,"CN(C)CCc1cncc(Nc2ncc3c(n2)-c2ccc(Cl)cc2NC(=S)C3)c1 [Compound I-104, 9-chloro-2-({5-[2-(dimethylamino)ethyl]pyridin-3-yl}amino)-5,7-dihydro-6H-pyrimido[5,4-d][1]benzazepine-6-thione]",< 5 nM
8,"Cc1nc(N(C)C2CCN(C)CC2)ccc1Nc1ncc2c(n1)-c1ccc(Cl)cc1NC(=S)C2 [Compound I-105, 9-chloro-2-({2-methyl-6-[methyl(1-methylpiperidin-4-yl)amino]pyridin-3-yl}amino)-5,7-dihydro-6H-pyrimido[5,4-d][1]benzazepine-6-thione]",< 5 nM
9,"Cc1nc(N2CCCC2)ccc1Nc1ncc2c(n1)-c1ccc(Cl)cc1NC(=S)C2 [Compound I-106, 9-chloro-2-[(2-methyl-6-pyrrolidin-1-ylpyridin-3-yl)amino]-5,7-dihydro-6H-pyrimido[5,4-d][1]benzazepine-6-thione]",< 5 nM
10,"CN1CCN(c2cncc(Nc3ncc4c(n3)-c3ccc(Cl)cc3NC(=S)C4)c2)CC1 [Compound I-107, 9-chloro-2-{[5-(4-methylpiperazin-1-yl)pyridin-3-yl]amino}-5,7-dihydro-6H-pyrimido[5,4-d][1]benzazepine-6-thione]",< 5 nM
11,"Cc1nc(N2CCOCC2)ccc1Nc1ncc2c(n1)-c1ccc(Cl)cc1NC(=S)C2 [Compound I-109, 9-chloro-2-[(2-methyl-6-morpholin-4-ylpyridin-3-yl)amino]-5,7-dihydro-6H-pyrimido[5,4-d][1]benzazepine-6-thione]",< 5 nM
12,"Cc1nc(N2CCCC2)ccc1Nc1ncc2c(n1)-c1ccc(C(F)(F)F)cc1NC(=S)C2 [Compound I-110, 2-[(2-methyl-6-pyrrolidin-1-ylpyridin-3-yl)amino]-9-(trifluoromethyl)-5,7-dihydro-6H-pyrimido[5,4-d][1]benzazepine-6-thione]",5 to 25 nM
13,"Cc1nc(N(C)CCN(C)C)ccc1Nc1ncc2c(n1)-c1ccc(Cl)cc1NC(=S)C2 [Compound I-112, 9-chloro-2-({6-[[2-(dimethylamino)ethyl](methyl)amino]-2-methylpyridin-3-yl}amino)-5,7-dihydro-6H-pyrimido[5,4-d][1]benzazepine-6-thione]",5 to 25 nM
14,"Cc1nc2c(cc1Nc1ncc3c(n1)-c1ccc(C(F)(F)F)cc1NC(=S)C3)C[C@H](N(C)C)CC2 [Compound I-113, 2-{[(6R)-6-(dimethylamino)-2-methyl-5,6,7,8-tetrahydroquinolin-3-yl]amino}-9-(trifluoromethyl)-5,7-dihydro-6H-pyrimido[5,4-d][1]benzazepine-6-thione]",< 5 nM
15,Cc1nc2c(cc1Nc1ncc3c(n1)-c1ccc(C(F)(F)F)cc1NC(=S)C3)C[C@@H](N(C)C)CC2 [Compound I-114],< 5 nM
16,"Cc1nc2c(cc1Nc1ncc3c(n1)-c1ccc(C(F)(F)F)cc1NC(=S)C3)CCCN2 [Compound I-115, 2-[(2-methyl-5,6,7,8-tetrahydro-1,8-naphthyridin-3-yl)amino]-9-(trifluoromethyl)-5,7-dihydro-6H-pyrimido[5,4-d][1]benzazepine-6-thione]",< 5 nM
17,"Cc1nc(C(=O)NC2CCN(C)CC2)ccc1Nc1ncc2c(n1)-c1ccc(Cl)cc1NC(=S)C2 [Compound I-116, 5-[(9-chloro-6-thioxo-6,7-dihydro-5H-pyrimido[5,4-d][1]benzazepin-2-yl)amino]-6-methyl-N-(1-methylpiperidin-4-yl)pyridine-2-carboxamide]",5 to 25 nM
18,"Cc1ncc(CCCN(C)C)cc1Nc1ncc2c(n1)-c1cc(C(F)(F)F)ccc1NC(=S)C2 [Compound I-117, 2-({5-[3-(dimethylamino)propyl]-2-methylpyridin-3-yl}amino)-10-(trifluoromethyl)-5,7-dihydro-6H-pyrimido[5,4-d][1]benzazepine-6-thione]",5 to 25 nM
19,"Cc1nc(C(=O)NCCN(C)C)ccc1Nc1ncc2c(n1)-c1ccc(C(F)(F)F)cc1NC(=S)C2 [Compound I-118, N-[2-(dimethylamino)ethyl]-6-methyl-5-{[6-thioxo-9-(trifluoromethyl)-6,7-dihydro-5H-pyrimido[5,4-d][1]benzazepin-2-yl]amino}pyridine-2-carboxamide]",5 to 25 nM
20,"Cc1ncc(CCCN(C)C)cc1Nc1ncc2c(n1)-c1cc(CCCN(C)C)c(Cl)cc1NC(=S)C2 [Compound I-120, 9-chloro-10-[3-(dimethylamino)propyl]-2-({5-[3-(dimethylamino)propyl]-2-methylpyridin-3-yl}amino)-5,7-dihydro-6H-pyrimido[5,4-d][1]benzazepine-6-thione]",> 25 nM
21,"Cc1nc(NC(=O)CN(C)C)ccc1Nc1ncc2c(n1)-c1ccc(C(F)(F)F)cc1NC(=S)C2 [Compound I-121, 2-(dimethylamino)-N-(6-methyl-5-{[6-thioxo-9-(trifluoromethyl)-6,7-dihydro-5H-pyrimido[5,4-d][1]benzazepin-2-yl]amino}pyridin-2-yl)acetamide]",5 to 25 nM
22,"Cc1nc2c(cc1Nc1ncc3c(n1)-c1ccc(C(F)(F)F)cc1NC(=S)C3)CCC(N(C)C)C2 (centres unmarked) [Compound I-122, 2-{[7-(dimethylamino)-2-methyl-5,6,7,8-tetrahydroquinolin-3-yl]amino}-9-(trifluoromethyl)-5,7-dihydro-6H-pyrimido[5,4-d][1]benzazepine-6-thione]",5 to 25 nM
23,"Cc1nc(C(=O)NC2CCN(C)CC2)ccc1Nc1ncc2c(n1)-c1ccc(C(F)(F)F)cc1NC(=S)C2 [Compound I-123, 6-methyl-N-(1-methylpiperidin-4-yl)-5-{[6-thioxo-9-(trifluoromethyl)-6,7-dihydro-5H-pyrimido[5,4-d][1]benzazepin-2-yl]amino}pyridine-2-carboxamide]",5 to 25 nM
